Measured values from PMC11480511 (Scientific Reports, 2024).

Columns and labels:
[1] = test system: MOLT-4; test: NCI single-dose growth inhibition screen; assay type: cell-based; settings: Homo sapiens; Leukemia MOLT-4; single dose 10^−5 M
[2] = test system: TK-10; test: NCI single-dose growth inhibition screen; assay type: cell-based; settings: Homo sapiens; Renal Cancer TK-10; single dose 10^−5 M
[3] = test system: ACHN; test: NCI single-dose growth inhibition screen; assay type: cell-based; settings: Homo sapiens; Renal Cancer ACHN; single dose 10^−5 M
[4] = test system: IGROV1; test: NCI single-dose growth inhibition screen; assay type: cell-based; settings: Homo sapiens, IGROV-1; Ovarian Cancer IGROV1; single dose 10^−5 M
[5] = test system: K-562; test: NCI single-dose growth inhibition screen; assay type: cell-based; settings: Homo sapiens, K562; Leukemia K-562; single dose 10^−5 M
[6] = molecular target: T1, topoisomerase IIβ (Homo sapiens, UniProt Q02880); test: Topoisomerase II inhibition, human DNA topoisomerase Elisa kit; assay type: biochemical; settings: ± SEM; read-out: Topoisomerase II IC50 µM ± SEM
T1 construct: purchased
Procedure: Two folds of serial dilution was accomplished after standards and the tested compounds were dissolved in sample diluent. Horseradish peroxidase (HRP-avidin) and biotin-conjugated antibody were diluted 10 times each. Each well received 100 µL of each concentration of the standard or test chemicals, which were then added and incubated at 37 °C for 60 min. […] The microtiter plate was rinsed three times and given room to aspirate. After that, the plate was incubated at 37 °C for 60 min with 100 µL of HRP-avidin solution added to each well. After that, the plate was aspirated and cleaned 5 times. Each well received 90 µL of TMB substrate, and the plate was incubated for 30 min. at 37 °C in a light-protected environment. Finally, stop solution (50 µL) was loaded, and within 5 min, the absorbance at 450 nm was measured spectrophotometrically.
Topoisomerase enzyme assay
Topoisomerase I and II inhibitory activity […]
topoisomerase IIβ inhibitory activity utilizing the human DNA topoisomerase Elisa kit.
Standards and the tested compound were dissolved in sample diluent and 2 folds serial dilution was achieved. Biotin-conjugated antibody and avidin conjugated Horseradish Peroxidase (HRP-avidin) were diluted to 10 folds. 100 μL of each concentration of standard or test compound were added to each well. Incubate at 37 °C for 1 h. The liquid in each well was removed. 10 0 μL of Biotin-conjugated antibody solution was added to each well followed by incubation for 1 h at 37 °C. The microtiter plate was allowed to aspirate and washed 3 times. 100 μL of avidin conjugated Horseradish Peroxidase (HRP -avidin) solution was added to each well and the plate was incubated for 1 h at 37 °C. The plate was aspirated and washed 5 times. 90 μL of TMB substrate were added to each well and the plate was incubated for 30 min at 37 °C and protected from light. 50 μL stop so lution was added. The absorbance was measured spectrophotometrically within 5 min at 450 nm .

[7] = test system: PC-3; test: NCI single-dose growth inhibition screen; assay type: cell-based; settings: Homo sapiens; Prostate Cancer PC-3; single dose 10^−5 M
[8] = test system: SNB-75; test: NCI single-dose growth inhibition screen; assay type: cell-based, human; settings: single dose 10^−5 M; for inhibition at 10 µM: Homo sapiens, SNB-75, CNS Cancer SNB-75
[9] = test system: RPMI-8226; test: NCI single-dose growth inhibition screen; assay type: cell-based; settings: Homo sapiens; Leukemia RPMI-8226; single dose 10^−5 M
[10] = test system: UACC-257; test: NCI single-dose growth inhibition screen; assay type: cell-based; settings: Homo sapiens; Melanoma UACC-257; single dose 10^−5 M
[11] = test system: HOP-62; test: NCI single-dose growth inhibition screen; assay type: cell-based; settings: Homo sapiens; Non-Small Cell Lung Cancer HOP-62; single dose 10^−5 M
[12] = test system: SK-MEL-2; test: NCI single-dose growth inhibition screen; assay type: cell-based; settings: Homo sapiens; Melanoma SK-MEL-2; single dose 10^−5 M
[13] = test system: MDA-MB-435; test: NCI single-dose growth inhibition screen; assay type: cell-based; settings: Homo sapiens; Melanoma MDA-MB-435; single dose 10^−5 M
[14] = test system: T-47D; test: NCI single-dose growth inhibition screen; assay type: cell-based; settings: Homo sapiens, T47D; Breast Cancer T-47D; single dose 10^−5 M
[15] = test system: SK-MEL-5; test: NCI single-dose growth inhibition screen; assay type: cell-based, human; settings: Homo sapiens, SK-MEL-5, Melanoma SK-MEL-5; single dose 10^−5 M
[16] = test system: HOP-92; test: NCI single-dose growth inhibition screen; assay type: cell-based; settings: Homo sapiens; Non-Small Cell Lung Cancer HOP-92; single dose 10^−5 M
[17] = test system: OVCAR-4; test: NCI single-dose growth inhibition screen; assay type: cell-based; settings: Homo sapiens; Ovarian Cancer OVCAR-4; single dose 10^−5 M
[18] = test system: HCT-116; test: NCI single-dose growth inhibition screen; assay type: cell-based; settings: Homo sapiens; Colon Cancer HCT-116; single dose 10^−5 M
[19] = test system: UACC-62; test: NCI single-dose growth inhibition screen; assay type: cell-based; settings: Homo sapiens; Melanoma UACC-62; single dose 10^−5 M
[20] = test system: NCI-H322M; test: NCI single-dose growth inhibition screen; assay type: cell-based; settings: Homo sapiens; Non-Small Cell Lung Cancer NCI-H322M; single dose 10^−5 M
[21] = test system: MDA-MB231; test: NCI single-dose growth inhibition screen; assay type: cell-based; settings: Homo sapiens, MDA-MB-231; Breast Cancer MDA-MB231; single dose 10^−5 M
[22] = test system: DU-145; test: NCI single-dose growth inhibition screen; assay type: cell-based; settings: Homo sapiens; Prostate Cancer DU-145; single dose 10^−5 M
[23] = test system: CCRF-CEM; test: NCI single-dose growth inhibition screen; assay type: cell-based; settings: Homo sapiens; Leukemia CCRF-CEM; single dose 10^−5 M

T1 sequence (Q02880 whole entry): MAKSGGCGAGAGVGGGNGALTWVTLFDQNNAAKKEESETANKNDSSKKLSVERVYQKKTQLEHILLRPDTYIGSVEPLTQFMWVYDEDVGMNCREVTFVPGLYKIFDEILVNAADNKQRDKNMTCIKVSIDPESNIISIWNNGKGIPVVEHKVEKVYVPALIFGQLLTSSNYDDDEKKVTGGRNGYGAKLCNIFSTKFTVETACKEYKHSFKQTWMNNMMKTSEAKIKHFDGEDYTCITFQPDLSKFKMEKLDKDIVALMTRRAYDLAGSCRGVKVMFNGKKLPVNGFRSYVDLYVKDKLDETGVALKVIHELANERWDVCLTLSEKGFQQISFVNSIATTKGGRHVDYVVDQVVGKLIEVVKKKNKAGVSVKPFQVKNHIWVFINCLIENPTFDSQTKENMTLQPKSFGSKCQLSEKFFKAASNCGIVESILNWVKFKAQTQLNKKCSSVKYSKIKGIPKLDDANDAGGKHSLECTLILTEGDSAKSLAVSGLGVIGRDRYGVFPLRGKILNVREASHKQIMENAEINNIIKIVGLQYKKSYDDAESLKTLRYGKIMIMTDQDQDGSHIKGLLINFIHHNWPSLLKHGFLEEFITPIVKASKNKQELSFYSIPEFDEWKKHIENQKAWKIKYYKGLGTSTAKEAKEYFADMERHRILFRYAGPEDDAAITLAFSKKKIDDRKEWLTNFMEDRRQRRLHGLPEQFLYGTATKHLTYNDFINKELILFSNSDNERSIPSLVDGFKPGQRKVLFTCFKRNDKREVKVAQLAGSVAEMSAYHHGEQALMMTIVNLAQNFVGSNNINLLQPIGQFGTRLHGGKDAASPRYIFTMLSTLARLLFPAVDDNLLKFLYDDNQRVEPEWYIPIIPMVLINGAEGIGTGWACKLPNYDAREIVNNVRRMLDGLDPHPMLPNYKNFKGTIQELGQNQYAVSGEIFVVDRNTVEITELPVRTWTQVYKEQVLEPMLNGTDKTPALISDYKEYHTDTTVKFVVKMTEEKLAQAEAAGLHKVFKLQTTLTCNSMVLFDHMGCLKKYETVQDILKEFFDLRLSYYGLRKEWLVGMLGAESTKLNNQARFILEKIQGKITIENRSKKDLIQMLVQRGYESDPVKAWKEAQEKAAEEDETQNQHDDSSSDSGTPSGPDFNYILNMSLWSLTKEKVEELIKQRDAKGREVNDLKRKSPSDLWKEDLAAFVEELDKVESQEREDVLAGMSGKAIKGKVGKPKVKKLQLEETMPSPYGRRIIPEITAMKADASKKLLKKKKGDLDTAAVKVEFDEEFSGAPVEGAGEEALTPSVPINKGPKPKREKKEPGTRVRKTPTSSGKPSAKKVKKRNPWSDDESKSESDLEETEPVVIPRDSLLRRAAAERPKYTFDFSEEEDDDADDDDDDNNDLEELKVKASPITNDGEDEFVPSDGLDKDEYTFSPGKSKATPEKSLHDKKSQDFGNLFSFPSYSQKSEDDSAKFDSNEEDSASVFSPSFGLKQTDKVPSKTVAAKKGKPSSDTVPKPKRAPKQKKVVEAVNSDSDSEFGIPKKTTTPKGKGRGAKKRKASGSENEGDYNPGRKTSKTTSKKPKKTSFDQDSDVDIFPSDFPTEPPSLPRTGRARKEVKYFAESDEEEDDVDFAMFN

Row | SMILES | inhibition at 10 µM [1] [%] | inhibition at 10 µM [2] [%] | inhibition at 10 µM [3] [%] | inhibition at 10 µM [4] [%] | inhibition at 10 µM [5] [%] | inhibition at 10 µM [7] [%] | inhibition at 10 µM [8] [%] | inhibition at 10 µM [10] [%] | inhibition at 10 µM [11] [%] | inhibition at 10 µM [12] [%] | inhibition at 10 µM [13] [%] | inhibition at 10 µM [14] [%] | inhibition at 10 µM [15] [%] | inhibition at 10 µM [16] [%] | inhibition at 10 µM [17] [%] | inhibition at 10 µM [18] [%] | inhibition at 10 µM [19] [%] | inhibition at 10 µM [20] [%] | inhibition at 10 µM [21] [%] | inhibition at 10 µM [22] [%] | other results
1 | O=C(O)c1cn(C2CC2)c2cc(N3CCN(C(=O)CCCN4C(=O)CSC4=O)CC3)c(F)cc2c1=O [3 L, 1-Cyclopropyl-7-(4-(4-(2,4-dioxothiazolidin-3-yl)butanoyl)piperazin-1-yl)-6-fluoro-4-oxo-1,4-dihydroquinoline-3-carboxylic acid] | < 0 | 28.7 | 0.6 | 15.3 | < 0 | 2.4 | 51.1 | < 0 | 16.8 | < 0 | < 0 | < 0 | < 0 | 0.7 | 19.2 | < 0 | 8.4 | 0 | 10.1 | 8.3 | IC50 [6]: 14.3 ± 0.78 µM; Growth Inhibition (%) ([8]; CNS Cancer SNB-75): 51.1%; inhibition at 10 µM [9]: 6%
2 | COc1cc(/C=C2\SC(=O)N(CCCC(=O)N3CCN(c4cc5c(cc4F)c(=O)c(C(=O)O)cn5C4CC4)CC3)C2=O)cc(OC)c1OC [3 g] | < 0 | < 0 | < 0 | < 0 | < 0 | < 0 | 5.9 | 6.7 | < 0 | < 0 | < 0 | < 0 | < 0 | < 0 | < 0 | < 0 | 3.7 | 5.1 | < 0 | < 0 | inhibition at 10 µM [9]: < 0%; inhibition at 10 µM [23]: < 0%
3 | O=C(O)c1cn(C2CC2)c2cc(N3CCN(C(=O)CCCN4C(=O)S/C(=C\c5ccc(Cl)cc5)C4=O)CC3)c(F)cc2c1=O [3 h] | < 0 | 1.1 | 0.7 | < 0 | 0.7 | < 0 | 15.5 | 5.1 | 2.9 | 7.3 | < 0 | 2 | 1.1 | 9.7 | 5.1 | 1.8 | 6.2 | 11.8 | 13.7 | < 0 | inhibition at 10 µM [9]: < 0%; inhibition at 10 µM [23]: < 0%
4 | Cc1ccc(/C=C2\SC(=O)N(CCCC(=O)N3CCN(c4cc5c(cc4F)c(=O)c(C(=O)O)cn5C4CC4)CC3)C2=O)cc1 [3c] | < 0 | < 0 | 2.3 | 3.2 | < 0 | 1.1 |  | < 0 | < 0 | < 0 | < 0 | < 0 | 3.8 | < 0 | < 0 | < 0 | 4.2 | < 0 | < 0 | < 0 | inhibition at 10 µM [23]: 2.9%
5 | O=C(O)c1cn(C2CC2)c2cc(N3CCN(C(=O)CCCN4C(=O)SC(=Cc5cccc([N+](=O)[O-])c5)C4=O)CC3)c(F)cc2c1=O [3d, 1-cyclopropyl-6-fluoro-7-[4-[4-[5-[(3-nitrophenyl)methylene]-2,4-dioxo-thiazolidin-3-yl]butanoyl]piperazin-1-yl]-4-oxoquinoline-3-carboxylic acid] | < 0 | < 0 | 4.2 | 1.6 | < 0 | < 0 | 18.2 | 8.1 | 5.2 | 2.9 | < 0 | < 0 | 2.3 | < 0 | 2.6 | < 0 | 10.3 | 6.8 | 8 | < 0 | inhibition at 10 µM [9]: < 0%; inhibition at 10 µM [23]: < 0%
6 | COc1ccc(C=C2SC(=O)N(CCCC(=O)N3CCN(c4cc5c(cc4F)c(=O)c(C(=O)O)cn5C4CC4)CC3)C2=O)cc1 [3e, 1-cyclopropyl-6-fluoro-7-[4-[4-[5-[(4-methoxyphenyl)methylene]-2,4-dioxo-thiazolidin-3-yl]butanoyl]piperazin-1-yl]-4-oxoquinoline-3-carboxylic acid] | < 0 | 11.3 | 1.2 | < 0 | < 0 | < 0 | 12.6 | 19.7 | < 0 | 6.5 | < 0 | 0.6 | 3.9 | 8.3 | < 0 | 0 | 7 | 6 | 12.4 | < 0 | inhibition at 10 µM [9]: < 0%; inhibition at 10 µM [23]: < 0%
7 | COc1ccc(/C=C2\SC(=O)N(CCCC(=O)N3CCN(c4cc5c(cc4F)c(=O)c(C(=O)O)cn5C4CC4)CC3)C2=O)cc1OC [3f] | 7.2 | 8.7 | < 0 | < 0 | 1.1 | < 0 | 4.9 | 12.3 | < 0 | 2.8 | < 0 | 0.9 | 1.9 | 0.8 | < 0 | < 0 | 1.4 | 4.2 | 0.1 | < 0 | inhibition at 10 µM [9]: < 0%; inhibition at 10 µM [23]: < 0%
